Results: patent US5968952A, “Farnesyl transferase inhibiting 2-quinolone derivatives” (Janssen Pharmaceutica, N.V., priority 1995, dated 1999)

How the values were obtained:
[1] = biological target: T1, Human farnesyl protein transferase (Homo sapiens, UniProt P49354+P49356); assay: In Vitro Assay for Inhibition of Farnesyl Protein Transferase ([3H] Scintillation Proximity Assay); format: biochemical; conditions: Table 7; human enzyme from KHOS cells; biotinylated lamin B peptide substrate; 60 min, 37° C.; read-out: IC50 (concentration of test compound producing 50% inhibition of enzyme activity)
T1 construct: were used as a source of human enzyme; endogenous in cells; host or cells: Kirsten virus transformed human osteosarcoma (KHOS) cells (ATCC), grown as monolayers or as solid tumors in nude mice; ammonium sulfate fraction and Q Sepharose pool
Experimental: In Vitro Assay for Inhibition of Farnesyl Protein Transferase Human farnesyl protein transferase was prepared essentially as described ([…] al., Methods: A Companion to Methods in Enzymology vol 1, 241-245, 1990). Kirsten virus transformed human osteosarcoma (KHOS) cells (American Type Culture Collection, Rockvill, Md., USA) grown as solid tumors in nude mice or grown as monolayer cell cultures were used as a source of human enzyme. Briefly, cells or tumors were homogenized in buffer containing 50 mM Tris, 1 mM EDTA, 1 mM EGTA and 0.2 mM phenylmethylsulfonylfluoride (pH 7.5). The homogenates were centrifuged 28,000× g for 60 min and the supernatants collected. A 30-50% ammonium sulfate […] prepared, and the resulting precipitate was resuspended in a small (10 to 20 ml) volume of dialysis buffer containing 20 mM Tris, 1 mM dithiothreitol and 20 μM ZnCl2. The ammonium sulfate fraction was dialyzed overnight against two changes of the same buffer. The dialyzed material was applied to a 10×1 cm Q Fast Flow Sepharose (Pharmacia LKB Biotechnology Inc., Piscataway, N.J., USA) which had been preequilibrated with 100 ml of dialysis buffer supplemented with 0.05M NaCl. The column was washed with an additional 50 ml of dialysis buffer plus 0.05M NaCl followed by a gradient from 0.05M to 0.25M NaCl prepared in dialysis buffer. The enzyme activity was eluted with a linear gradient of 0.25 to 1.0M NaCl prepared in the dialysis buffer. Fractions containing 4 to 5 ml volumes of column eluate were collected and analyzed for farnesyl protein transferase activity. Fractions with enzyme activity were pooled and supplemented with 100 μM ZnCl2. Enzyme samples were stored frozen at -70° C. The activity of farnesyl protein transferase was measured using the Farnesyl Transferase [^3 H] Scintillation Proximity Assay (Amersham International plc., England) under the conditions specified by the manufacturer. […] The reaction mixture was warmed to 37° C. The enzyme reaction was started by adding 20 μl of diluted human farnesyl protein transferase. […] Reactions were terminated by the addition of STOP/scintillation proximity bead reagent (Amersham). The reaction product [^3 H]-farnesyl-(Cys)-biotin lamin B peptide was captured on the streptavidin linked scintillation proximity bead. The amount of [^3 H]-farnesyl-(Cys)-biotin lamin B peptide synthesized in the presence or absence of test compounds was quantified as cpm by counting on a Wallac Model 1480 Microbeta Liquid Scintillation Counter. The cpm of product was considered to be farnesyl protein transferase activity. The protein farnesyl transferase activity observed in the presence of test compound was normalized to farnesyl transferase activity in the presence of 10% DMSO and expressed as per cent inhibition. […] W. Johnson Pharmaceutical Research Institue (Spring House, Pa., USA) on a VAX computer.

[2] = tested on: NIH 3T3 cells transformed by the T24 activated human H-ras gene; assay: Ras-Transformed Cell Phenotype Reversion Assay; format: cell-based, mouse; conditions: NIH3T3; Table 8; T24 H-ras transformed NIH 3T3 cells; 72 hours; cell counts
From the text: "Ras-Transformed Cell Phenotype Reversion Assay" Insertion of activated oncogenes such as the mutant ras gene into mouse NIH 3T3 cells converts the cells to a transformed phenotype. The cells become tumorigenic, display anchorage independent growth in semi-solid medium and lose contact inhibition. Loss of contact inhibition produces cell cultures which no longer form uniform monolayers. Rather, the cells pile up into multicellular nodules and grow to very high saturation densities in plastic tissue culture dishes. Agents such as protein farnesyl transferase inhibitors which revert the ras transformed phenotype restore the uniform monolayer growth pattern to cells in culture. This reversion is easily monitored by counting the number of cells in tissue culture plates. Transformed cells will achieve higher cell numbers than cells which have reverted to an untransformed phenotype. Compounds which revert the transformed phenotype should produce antitumor effects in tumors bearing ras gene mutations. Method Compounds are screened in tissue culture in NIH 3T3 cells transformed by the T24 activated human H-ras gene. Cells are seeded at an initial density of 200,000 cells per well (9.6 cm^2 surface area) in six-well cluster tissue culture plates. Test compounds are immediately added to 3.0 ml cell growth mediuim in a 3.0 μl volume of DMSO, with a final concentration of DMSO in the cell growth medium of 0.1%. […] Then the cells are detached in 1.0 ml trypsin-EDTA cell dissociation medium and counted on a Coulter particle counter. Measurements Cell numbers expressed as cells per well are measured using a Coulter Particle Counter. All cell counts were corrected for the initial cell input density by subtracting 200,000. Control cell counts=[cell counts from cells incubated with DMSO vehicle--200,000] Test compound cell counts=[cell counts from cells incubated with test compound--200,000]. [formula]

Compound | IC50 [1] [nM] | IC50 [2] [nM]
O=c1cc(-c2cccc(Cl)c2)c2cc(C(c3ccc(Cl)cc3)n3ccnc3)ccc2[nH]1 (single isomer, unassigned) [Compound 23] | 15 | 204
CCC(c1ccc(Cl)cc1)(c1ccc2c(c1)c(-c1cccc(Cl)c1)cc(=O)n2C)n1ccnc1 (stereo not shown) [Compound 63] | 30 | 294
Cc1cncn1C(C)(c1ccc(Cl)cc1)c1ccc2c(c1)c(-c1cccc(Cl)c1)cc(=O)n2C (stereo not shown) [Compound 64, 4-(3-chlorophenyl)-6-[1-(4-chlorophenyl)-1-(5-methyl-1H-imidazol-1-yl)ethyl]-1-methyl-2(1H)-quinolinone] | 11 | 133
Cn1c(=O)cc(-c2cccc(Cl)c2)c2cc(C(CO)(c3ccc(Cl)cc3)n3ccnc3)ccc21 (stereo not shown) [Compound 66] | 5.6 | 53
COCCn1c(=O)cc(-c2cccc(Cl)c2)c2cc(C(c3ccc(Cl)cc3)n3ccnc3)ccc21 (stereo not shown) [Compound 77, 4-(3-chlorophenyl)-6-[(4-chlorophenyl)(1H-imidazol-1-yl)methyl]-1-(2-methoxyethyl)-2(1H)-quinolinone ethanedioate (2:3) monohydrate] | 7.2 | 189
Cn1c(=O)cc(-c2ccc3c(c2)OCO3)c2cc(C(c3ccc(Cl)cc3)n3ccnc3)ccc21 (stereo not shown) [Compound 83, 6-[(4-chlorophenyl)(1H-imidazol-1-yl)methyl]-4-(1,3-benzodioxol-5-yl)-1-methyl-2(1H)-quinolinone ethanedioate (1:1)] | 3.4 | 68
Cc1cc(C(c2ccc(Cl)cc2)n2ccnc2)cc2c(-c3cccc(Cl)c3)cc(=O)n(C)c12 (stereo not shown) [Compound 89] | – | 445
